In PubChem BioAssay AID179 (DTP/NCI, 2004) one finds outcome, EC50 and IC50 data, which are given here for 53 compounds.

For the experiment, the system named is CEM cells HIV-1 protection, formazan growth assay. Briefly: NCI AIDS Antiviral Assay. The settings on record: for IC50: measured here: growth of uninfected CEM cells. The essentials: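 Protection of CEM cells against HIV-1 was scored from cell growth (soluble formazan) across five concentrations, with parallel uninfected cells. Lack of protection may reflect toxicity.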

“And” between values parts separate entries of the source, which are not always exact repeats. Identical values can stand only once. The source made the active and inactive calls.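 The calls were made as follows: active = compounds giving half or more protection of infected cells from virus-caused growth loss, again on retest; inactive = the rest.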 Where only a bound is given, the exact number is not on record here.

Usually EC50 stands for the concentration needed to bring the measured effect to its halfway point. What is called IC50 is the concentration that inhibits the measured activity by half. The low end stands for higher potency, the high end for lower potency.

In the case of `CNNC(=NS(=O)(=O)c1cc(C#N)c(NNC)cc1S)NNC`, the outcome was inactive.
On to `CCOC(=O)c1cc(Br)c(-c2onc(C)c2Br)n1C`, for which the EC50 is more than 200 µM and the IC50 amounted to 89.1 µM.
As for `COC(CN(C)C(=O)C(C)NC(=O)c1ccccc1)OC` (stereo not drawn), the result was inactive.
Regarding `O=c1ccn(C2CC(F)C(CO)S2)c(=O)[nH]1` (stereo not drawn), the EC50 was more than 25.1 µM and the IC50 is more than 25.1 µM.
As for `CCC(NC(C)c1ccccc1)C(=O)c1ccc(OCc2ccccc2)c(OCc2ccccc2)c1` (stereo not drawn), the EC50 is more than 200 µM and the IC50 is more than 200 µM.
For the compound `COc1cc(OC)cc(-n2c(N)c(-c3nc4ccccc4s3)c3ccc([N+](=O)[O-])cc3c2=O)c1`, the EC50 was more than 200 µM and the half-inhibitory concentration (IC50) is 148 µM.
On the same counts, the results for `C=C(Br)CNC(=O)NCCN1CCOCC1` are more than 200 µM and more than 200 µM.
On the same counts, the results for `O=C(O)C(O)(c1ccccc1)c1ccsc1` (stereo not drawn) are more than 200 µM and more than 200 µM.
On the same counts, the results for `CC(C)CS(=O)(=O)/C(=C(\c1ccc(Br)cc1)S(=O)(=O)CC(C)C)c1ccc(Br)cc1` are more than 1.29 µM and more than 1.29 µM.
As for `CCOCCOC(=O)C1CCC(=O)N1CN(C(C)=O)c1cc(OC)ccc1OC` (stereo not drawn), the result was inactive.
The same measure, in the same setting: with `CC12OC(=O)C(C#N)C1(C)C1C(=O)CCCC12` (stereo not drawn) the entry was “inactive”.
Same read-out and setting: with `CN1CCc2cc(O)c3cc2C1Cc1ccc(cc1)Oc1cc(ccc1OC(=O)C(C)(C)C)CC1c2c(cc(OC(=O)C(C)(C)C)c(OC(=O)C(C)(C)C)c2O3)CCN1C` (stereo not drawn) the entry was “inactive”.
Turning to `COc1cccc(NC(=O)CC(=O)n2nc(-c3ccccc3)c(N=Nc3ccc(Cl)cc3)c2-c2ccccc2)c1`, the EC50 is more than 200 µM and the IC50 was determined as 11.5 µM.
On the same counts, the results for `Cc1ccccc1N1C(=O)[N+](C)(C)N=C1[O-]` are more than 1150 µM and more than 1150 µM.
For `N[C@H](C(=O)O)[C@@H]1CC(Cl)=NO1`, the EC50 is more than 15.1 µM and the IC50 was more than 15.1 µM.
On to `NC(N)=NS(=O)(=O)c1ccc(NC(=O)c2cccc3c(Nc4ccc(S(N)(=O)=O)cc4)c4ccccc4nc23)cc1`, for which the EC50 is more than 43.7 µM and the IC50 was more than 43.7 µM.
For the compound `C=C1C(=O)O[C@H]2C/C(C=O)=C\[C@H]3O[C@H]3/C(COC(=O)C(C)C)=C/CC12` (stereo partly drawn), the EC50 was more than 200 µM and the IC50 is 1.62 µM.
In the same order, the values of `O=C1O/C(=C(\Br)c2ccc([N+](=O)[O-])cc2)c2ccccc21` are more than 200 µM and 16.6 µM.
On the same counts, the results for `COC(=O)c1ccccc1C1CN=NC12Cc1cc(C)c(C)cc1C2=O` (stereo not drawn) are more than 138 µM and more than 138 µM.
Regarding `O=[N+]([O-])c1cc(C2SCc3nc4ccccc4n32)ccc1Cl` (stereo not drawn), the result was inactive.
In the case of `CCCC(=O)n1[nH]c(=O)n(-c2ccc(Cl)cc2)c1=O`, the EC50 is more than 200 µM and the IC50 is more than 200 µM.
With `Cc1cn(C2CCC3(CO)CC23)c(=O)[nH]c1=O` (stereo not drawn), the EC50 is more than 50.1 µM and the IC50 was more than 50.1 µM.
On to `CCCCCCCCCCCCCCCCOC[C@@H](COC(c1ccccc1)(c1ccccc1)c1ccccc1)O[P+](=S)OC` (stereo partly drawn), for which the EC50 was more than 200 µM and the IC50 is 22.4 µM.
In the same order, the values of `Cc1nc2sc(C(=O)c3ccc(Cl)cc3)c(N)c2c(-c2ccccc2Cl)c1C(=O)Nc1ccccc1` are more than 200 µM and 3.02 µM.
For `CC1=NN(c2cccc(S(=O)(=O)O)c2)C(=O)C1N=Nc1cc(Cl)cc(S(=O)(=O)O)c1O.O.[Cr]` (stereo not drawn), the EC50 was 89.1 µM and the IC50 was more than 100 µM.
On the same counts, the results for `O=C1C[C@H]2CCCN2[C@@H](c2ccccc2)C1` are more than 603 µM and more than 603 µM.
For the compound `O=c1oc(-c2ccccc2)c(-c2ccccc2)n1-c1ccc(Br)cc1`, the EC50 was more than 100 µM and the IC50 is more than 100 µM.
On to `Cc1nnc(N=Nc2c(O)[nH]c3ccccc23)n1N`, for which the EC50 was more than 70.8 µM and the IC50 is 58.9 µM.
Consider `Cc1nc2ccccc2c(=O)n1/N=C(\N=Nc1cc(Cl)ccc1Cl)c1ccc(N(C)C)cc1`, for which the outcome was inactive.
Regarding `C=C1OC2OC(C)C(NC(=O)OCC(Cl)(Cl)Cl)C(OC(C)=O)C2O1` (stereo not drawn), the EC50 is more than 234 µM and the IC50 was more than 234 µM.
For the compound `c1ccc(N/N=C2\NN=C(c3ccccc3)CS2)cc1`, the EC50 is more than 66.1 µM and the IC50 was 35.5 µM.
In the same order, the values of `O=C(/C=C\c1ccccc1)Oc1ccc(/C=C2\CCCCC2=O)cc1` are more than 200 µM and 7.08 µM.
Take `COC(=O)C12C3C4C1C1C2C3C41I` (stereo not drawn): the EC50 is more than 126 µM and the IC50 is more than 126 µM.
As for `CCOC(=O)/C(=C/c1cccc(C#N)c1)N(CC)CC`, the EC50 is more than 661 µM and the IC50 was 347 µM.
In the same order, the values of `COc1cc2nncc(Sc3cnnc4ccccc34)c2cc1OC` are more than 61.7 µM and 7.59 µM.
Regarding `C=C1CCC2(C)[C@H](C)CC[C@H](O)C2(CCC=C(C)C)[C@@H]1Cc1c[nH]c2ccccc12` (stereo partly drawn), the result was inactive.
In the case of `COc1cc(N=Nc2ccccc2)ccc1NCS(=O)(=O)O`, the EC50 was more than 200 µM and the IC50 worked out at 174 µM.
In the same order, the values of `CC1=C[C@H]2C3=C(OC(C)(C)[C@H]2CC1)C(=O)c1c(cc(O)c(C)c1O)C3=O` are more than 182 µM and 34.7 µM.
In the same order, the values of `O=C1C2=Nc3ccccc3C(O)(C(=O)O)N2c2ccccc21` (stereo not drawn) are more than 200 µM and 16.6 µM.
In the same order, the values of `CC(=O)OCC1OC(n2c(-c3ccccc3)c(C)c(C)c(C#N)c2=S)C(OC(C)=O)C(OC(C)=O)C1OC(C)=O` (stereo not drawn) are more than 100 µM and more than 100 µM.
Consider `CC(=O)OC(C)(C)c1ccc2c(c1)C(=O)C[C@@H]1[C@](C)(C#N)CCC[C@]21C`, for which the EC50 was more than 200 µM and the IC50 worked out at 126 µM.
For `CN(C)C(=S)SSC(C)(C)C`, the EC50 was more than 200 µM and the IC50 was 8.32 µM.
Take `O=C(O)c1ccc(CS(=O)(=O)c2ccc([N+](=O)[O-])cc2)cc1`: the EC50 was more than 22.4 µM and the 50% inhibitory concentration (IC50) was more than 22.4 µM.
For `Clc1cccc(C2=NOC3COC4C=CC=CC4OCC23)c1` (stereo not drawn), the EC50 was more than 58.9 µM and the IC50 was more than 58.9 µM.
For the compound `COc1cc(C[S+]2CCCC2)c(SC)cc1C[S+]1CCCC1`, the EC50 is more than 83.2 µM and the IC50 is more than 83.2 µM.
With `Cc1ccc(N=C(N)NC#N)cc1`, the EC50 was more than 1450 µM and the IC50 is more than 1450 µM.
Take `O=c1cn[nH]c2ccccc12`: the EC50 was more than 741 µM and the IC50 is more than 741 µM.
In the case of `C=C(Cl)c1c(OC)cccc1OCc1ccccc1`, the EC50 is more than 200 µM and the IC50 came to 97.7 µM.
As for `CC(=O)Nc1ccc(C(=O)N2N=C(C)/C(=C/c3cccc(O)c3)C2=O)cc1`, the EC50 is more than 138 µM and the IC50 was more than 138 µM.
Turning to `CSc1nc(N)n(C(=O)c2ccc([N+](=O)[O-])cc2)n1`, the EC50 was more than 13.5 µM and the IC50 was more than 13.5 µM.
For `CC(C)(C)OC(=O)CN1CCNCCN(CC(=O)OC(C)(C)C)CC1`, the EC50 was more than 200 µM and the IC50 came to 38 µM.
As for `Cc1c(CN2CCN(C)CC2)c(CN2CCN(C)CC2)c(C)n1-c1ccc(Cl)cc1`, the EC50 is more than 151 µM and the IC50 came to 26.3 µM.
For `O=C1c2c(O)ccc(O)c2C(=O)c2c(NCCNCCO)ccc(NCCNCCO)c21`, the EC50 is more than 0.708 µM; the IC50 is 0.00186 µM and 0.00251 µM.
